Experimental data as given in the SangsterLogP compilation.

## COc1cc(/C=C/C(=O)Nc2ccc(N3CCCCC3)cc2)ccc1OC(F)F
pH 8.0
  logD: 5.36

## CC1(C)[C@H](C(=O)N2CCOCC2)CC[C@]1(C)C(=O)N1CCOCC1
pH 5.0
  logD: 2.46

## CCN(CC)S(=O)(=O)c1ccc(/C=C/C(=O)NC2CCCCC2)cc1
pH 5.0
  logD: 4.34

## Cc1ccc(CN2C(=O)/C(=C/[C@@H]3CC=CCC3)SC2=S)cc1
pH 6.5
  logD: 6.26

## Cc1cccc(-n2c(S[C@@H](C)C(N)=O)nnc2-c2cccc(S(=O)(=O)N(C)C)c2)c1
pH 10.5
  logD: 3.81

## O=P(Oc1ccccc1)(Oc1ccccc1)O[C@@H]1C=CS(=O)(=O)C1
pH 6.5
  logD: 2.48

## Cc1c(NC(=O)[C@@H]2CCCCN2S(=O)(=O)c2ccc(Cl)cc2)c(=O)n(-c2ccccc2)n1C
pH 5.0
  logD: 3.89

## O=C(c1cccc(COCC(F)(F)C(F)F)c1)N1CC[C@@H](C(F)(F)F)n2nccc21
pH 5.0
  logD: 4.27

## CCOC(=O)/C=c1/s/c(=C/c2c(F)cccc2F)c(=O)n1CC(=O)N(C)C
pH 2.0
  logD: 3.17

## O=C(c1ccc(Cl)cc1)N(Cc1ccc(Cl)c(Cl)c1)N1C(=O)[C@@H]2CCCC[C@H]2C1=O
pH 6.5
  logD: 5.51

## CCOC(=O)c1[nH]c(C)c(C(=O)OCC(=O)N(C)[C@@H]2CCS(=O)(=O)C2)c1C
pH 5.0
  logD: 3.35

## Cc1ccc2[nH]c3nc(N/N=C/C=C/c4ccco4)nnc3c2c1
pH 6.5
  logD: 2.18

## CCCCNC(=S)N(C)/N=C/c1ccc(OCc2ccc(Cl)cc2)c(OC)c1
pH 6.5
  logD: 6.8

## CCOC(=O)c1c(N2C(=O)[C@@H]3CC(C)=C(C)C[C@H]3C2=O)sc(C)c1C
pH 5.0
  logD: 4.56

## CC(=O)C1=C(C)NC(SCC(=O)Nc2ccccc2)=C(C#N)[C@H]1c1ccccc1Cl
pH 10.5
  logD: 4.97

## C#CCN1C(=O)[C@H]2CC[C@@](C)(C1=O)C2(C)C
pH 5.0
  logD: 2.28

## Cc1ccc(-c2nc3n(n2)C(=O)C[C@H](c2cccc([N+](=O)[O-])c2)S3)cc1
pH 5.0
  logD: 4.49

## Cc1ccc(N2C(=O)N(c3cccc(Cl)c3)[C@@H]3CS(=O)(=O)C[C@@H]32)cc1
pH 5.0
  logD: 3.56

## C=C1NC(=S)N[C@H](c2ccc(-c3ccc(C(C)=O)cc3)o2)[C@H]1C(=O)OC(C)(C)C
pH 5.0
  logD: 4.53

## COc1ccccc1NC(=S)N[C@H](NC(=O)c1ccccc1C)C(Cl)(Cl)Cl
pH 2.0
  logD: 3.95

## Cc1ccc(Cl)c(OCc2ccc(-c3nc4c5c[nH]nc5ncn4n3)o2)c1
pH 10.0
  logD: 4.4

## COc1ccc(NC(=O)[C@H](OC(=O)CNC(=O)c2ccc(C)s2)c2ccccc2)cc1Cl
pH 2.0
  logD: 4.54

## CC1(C)CC(=O)C2=C(C1)OC(N)=C(C#N)[C@H]2c1c2ccccc2cc2ccccc12
pH 10.5
  logD: 4.99

## COC(=O)c1c(NC(=O)Cn2nc(C)c([N+](=O)[O-])c2C)sc2c1CC[C@H](C(C)(C)C)C2
pH 5.0
  logD: 6.53

## CC[C@@H]1CCCCN1C(=O)[C@H]1CC(c2cc(Cl)c(OC)cc2OC)=NO1
pH 10.0
  logD: 4.55

## CCCC[C@H](CC)Cn1c(SCC(=O)Nc2ccc(OC)cc2)nc2c1c(=O)n(C)c(=O)n2C
pH 5.0
  logD: 5.51

## CCc1ccccc1NC(=O)[C@]12CC[C@](C)(C(=O)O1)C2(C)C
pH 5.0
  logD: 3.31

## CCO/C(O)=C/c1nc2nonc2nc1O
pH 10.0
  logD: 1.61

## COc1cccc(C(=O)N2CCC[C@H](c3ccccc3)C2)c1
pH 5.0
  logD: 4.04

## O=C1[C@H]2[C@@H](C(=O)N1c1ccccc1)C1(O[C@H]2c2ccccc2)C(=O)c2ccccc2C1=O
pH 5.0
  logD: 4

## CC(=O)N(c1ccccc1)c1nc(/C=C/C(=O)Nc2ccc3c(c2)OCO3)cs1
pH 8.0
  logD: 4.37

## Cc1ccc([C@@H](O)P(=O)(OCC(C)C)OCC(C)C)cc1
pH 5.0
  logD: 4.44

## COC(=O)c1c(C)sc2c1OC(N)=C(C#N)[C@@H]2c1cc(Br)cs1
pH 10.5
  logD: 5.06

## Cc1ccc(CNC(=O)C2CCN(S(=O)(=O)c3ccc4c(c3)OCCCO4)CC2)cc1
pH 5.0
  logD: 4.01

## CN(c1ccccc1)S(=O)(=O)c1ccc(C(=O)/N=c2/sc3cc([N+](=O)[O-])ccc3n2C)cc1
pH 6.5
  logD: 5.84

## CC(C)(C)C1(C)O[C@H](C(N)=O)[C@H](C(N)=O)O1 (stereo partly drawn)
pH 6.5
  logD: 1.6

## CC1CCN(S(=O)(=O)N2CCC(C(=O)N[C@@H](C)c3ccccc3)CC2)CC1
pH 5.0
  logD: 4.92

## C[C@@H](Sc1nnnn1-c1ccc(Cl)cc1)C(=O)NCC(=O)Nc1ccc(F)c(F)c1F
pH 5.0
  logD: 4.52

## O=C(CN1C(=O)/C(=C2\SC(=S)N(Cc3ccco3)C2=O)c2ccccc21)Nc1ccc(F)cc1
pH 6.5
  logD: 6.36

## CCOC(=O)N1CCN(C(=O)c2ccc(N3C(=O)[C@H]4CCCC[C@@H]4C3=O)cc2)CC1
pH 5.0
  logD: 3.74

## CCc1cc2c3c(c1)[C@]1(C(=O)N3C(C)(C)C=C2C)C(C#N)=C(N)OC2=C1C(=O)CC(C)(C)C2
pH 10.5
  logD: 5.39

## CC(C)(C)C(=O)Nc1ccc(NC(=O)C(C)(C)C)cc1
pH 5.0
  logD: 2.79

## CC1=C(C(=O)OC[C@@H]2CCCO2)[C@H](c2cc([N+](=O)[O-])ccc2Cl)C2=C(CC(C)(C)CC2=O)N1
pH 10.0
  logD: 4.53

## CC[C@@H]1CCCCN1C(=O)COc1cccc2c1CCN(Cc1ccc(Cl)cc1)C2=O
pH 6.5
  logD: 5.23

## CCCCOc1ccc(/C=C/C(=O)NC(C)C)cc1
pH 5.0
  logD: 4.45

## CCOC(=O)c1c(C)nc(SC[C@@]2(O)CCCC[C@@H]2SC)c(C#N)c1-c1ccccc1
pH 5.0
  logD: 6.01

## CCCCOC(=O)C1=C(C)NC2=C(C(=O)CCC2)[C@H]1c1ccccc1OC
pH 7.3
  logD: 4.21

## CCN(CC)S(=O)(=O)c1ccc2nnn(OCC(=O)NC(c3ccccc3)c3ccccc3)c2c1
pH 5.0
  logD: 4.49

## CC[C@]1(C)NC(=S)N2N1C(=S)N[C@@]2(C)CC
pH 5.0
  logD: 2.44

## Clc1ccc(/C=N/NC2=Cn3c(nc4ccccc43)NN2)cc1
pH 10.5
  logD: 4.81

## COc1cc2c(cc1OC)[C@@H](COc1ccc(F)cc1)N(C(=O)/C=C/c1ccccc1)CC2
pH 5.0
  logD: 5.45

## COC(=O)c1ccc(C(=O)OC)c(NC(=O)CSc2ncnc3sc4c(c23)CC[C@@H](C)C4)c1
pH 6.5
  logD: 5.79

## CCOC(=O)C1CCN(C(=O)c2ccc(Cl)c(/N=C3/N[C@@H]4CS(=O)(=O)C[C@@H]4S3)c2)CC1
pH 10.5
  logD: 2.96

## CC1=NN(C(=O)c2ccccc2Cl)[C@](O)(c2ccc(Cl)cc2)C1
pH 5.0
  logD: 3.73

## O=C(Nc1ccc2c(c1)OCO2)[C@@H]1COc2ccccc2O1
pH 5.0
  logD: 3.28

## COC(=O)c1ccc(N(C(=O)C(F)(F)F)[C@@H]2C=CS(=O)(=O)C2)cc1
pH 5.0
  logD: 2.05

## COc1ccc([C@H]2C(C#N)=C(N)N(c3ccc(Cl)cc3)C3=C2C(=O)CC(C)(C)C3)cc1OC
pH 5.0
  logD: 4.34

## CC[C@@H](OC(=O)CNC(=O)c1ccc(N2C(=O)c3ccccc3C2=O)cc1)C(=O)c1ccccc1
pH 2.0
  logD: 4.15

## C[C@@H](NC(=O)CN(C1CCCCC1)S(=O)(=O)c1ccccc1)c1ccccc1
pH 5.0
  logD: 4.9

## COc1ccc(N2C(=S)N=C(N[C@@H]([C@@H](Oc3ccc(Cl)cc3)n3cncn3)C(C)(C)C)C2(C)C)cc1
pH 6.5
  logD: 5.56

## COc1cc2c(cc1OC)[C@@]1(C)N(CC2)C(=O)OC12CCCCC2
pH 5.0
  logD: 3.47

## CC1(C)C[C@](C)(O)[P@](C)(=O)O1
pH 5.0
  logD: 0.71

## C/C(=C\c1ccco1)[C@H]1C(C#N)=C(N)Oc2n[nH]c(-c3ccccc3)c21
pH 10.5
  logD: 4.82

## CC(=O)Nc1ccc(/N=C/c2c(O)oc3ccccc3c2=O)cc1
pH 5.0
  logD: 3.64

## CC(=O)C1=C(C)NC(SCC(=O)c2ccc(Cl)cc2Cl)=C(C#N)[C@@H]1c1cccs1
pH 10.5
  logD: 5.25

## Cc1cccc(NC(=O)Cc2ccc(Br)cc2)c1C
pH 5.0
  logD: 4.05

## C[C@H]1C[C@H](NC(=S)NCc2csc3ccccc23)CC(C)(C)C1
pH 5.0
  logD: 6.21

## C#CCOc1ccc(C2C3=C(CC(C)(C)CC3=O)OC3=C2C(=O)CC(C)(C)C3)cc1OCC
pH 5.0
  logD: 4.93

## CSc1ncc2c(n1)-c1c(SC)sc(C(=O)Nc3ccc(Cl)cc3)c1CC2
pH 7.3
  logD: 5.87

## CCN(CC)C(=O)[C@@]12CC[C@@](C)(C(=O)O1)C2(C)C
pH 5.0
  logD: 2.66

## O=C1[C@@H](CSCc2ccccc2)NC(=S)N1C1CCCCC1
pH 2.0
  logD: 4.58

## CC1=C(C)C[C@@H]2C(=O)N(c3cccc(Br)c3)C(=O)[C@H]2C1
pH 5.0
  logD: 3.93

## CCCC1=C(C(=O)OCC)[C@H](c2ccc3c(c2)OCO3)NC(=O)N1
pH 5.0
  logD: 3.59

## Cc1cc(C(F)(F)F)nn1[C@@H](C)c1nnc(Nc2ccn(Cc3ccccc3)n2)s1
pH 10.0
  logD: 5.34

## Cc1cc(C(=O)NCCc2c(C)[nH]c3ccccc23)ccc1[N+](=O)[O-]
pH 9.2
  logD: 4.12

## C[C@@H]1CCC[C@H](C)N1C(=O)COC(=O)c1ccc2c(c1)S(=O)(=O)c1ccccc1C2=O
pH 5.0
  logD: 4.39

## O=C(NCc1ccc(F)cc1)c1nn2c(c1Br)N[C@H](c1cccs1)C[C@H]2C(F)(F)F
pH 5.0
  logD: 5.54

## Cc1onc(-c2c(F)cccc2Cl)c1C(=O)OCC(=O)N1[C@H](C)CCC[C@H]1C
pH 5.0
  logD: 4.38

## Cc1cc2c(cc1C)N[C@@H](c1cc3c(cc1Cl)OCO3)C1=C(CC(C)(C)CC1=O)N2
pH 6.5
  logD: 4.38

## COc1cccc(/C=C/C(=O)OCC(=O)c2cc(C)n(-c3cc(C)on3)c2C)c1
pH 6.5
  logD: 5.2

## O=C(/C=C/Nc1cccc(C(F)(F)F)c1)c1ccc(Br)cc1
pH 5.0
  logD: 5.65

## CCOC(=O)c1c(NC=C2C(=O)N(C)C(=O)N(C)C2=O)sc2c1CC[C@@H](CC)C2
pH 5.0
  logD: 5.76

## C[C@@H](NC(=O)C1CCN(C(=O)c2ccc(F)cc2)CC1)c1ccccc1
pH 5.0
  logD: 3.48

## Cc1ccc(NC(=O)COC(=O)/C(=C/c2cccs2)c2cccs2)c(C)c1
pH 6.5
  logD: 3.83

## Cc1c(Cl)c(C(F)(F)F)nn1[C@@H](C)C(=O)N1CCOCC1
pH 5.0
  logD: 3.08

## O=C1Nc2cc(C(=O)NC3CC3)ccc2S/C1=C\c1ccccc1
pH 5.0
  logD: 4.32

## COc1ccc([C@@H]2Nc3ccccc3C(=O)N2c2ccccc2)cc1COc1ccc(NC(C)=O)cc1
pH 8.0
  logD: 4.65

## Cc1ccc(NC(=O)[C@@H]2CCCN2C(=O)OC(C)(C)C)cc1C
pH 5.0
  logD: 3.9

## CCCOc1ccc(N2C(=O)C[C@H](N3CCNC3=S)C2=O)cc1
pH 6.5
  logD: 2.68

## Cc1ccc(C)c(NC(=O)[C@H]2CC3c4ccccc4C2c2ccccc23)c1
pH 5.0
  logD: 5.26

## CCN1C(=O)/C(=C2\SC(=S)N(Cc3ccc(OC)cc3)C2=O)c2cc(Br)ccc21
pH 5.0
  logD: 6.96

## CC(=O)c1ccc(NC(=O)CNC(=O)CNC(=O)[C@@H]2O[C@@H]3OC(C)(C)O[C@@H]3[C@H]3OC(C)(C)O[C@H]32)cc1
pH 5.0
  logD: 3.39

## NC(=O)c1cc(N2C(=O)[C@H]3CC=CC[C@@H]3C2=O)ccc1N1CCCCC1
pH 10.0
  logD: 3.68

## CSc1ccc([C@@H]2[C@@H]3C(=O)N(c4cccc(C(F)(F)F)c4)C(=O)[C@H]3ON2c2ccccc2)cc1
pH 10.0
  logD: 5.98

## O=C(/C=C/c1cccs1)Nc1ccc(I)cc1
pH 2.0
  logD: 4.67

## COC(=O)[C@H]1OC(c2ccccc2)O[C@H]1C(=O)OC (stereo partly drawn)
pH 5.0
  logD: 2.49

## COc1cc(/C=N\n2cnc3sc4c(c3c2=O)CCCC4)ccc1OCc1ccccc1
pH 5.0
  logD: 5.68

## C[C@H]1CCCC[C@@H]1NC(=O)COc1ncnc2ccccc12
pH 6.5
  logD: 3.11
